Assay results published in patent US20070117743A1, “New antitumoral compounds” (priority 2003, published 2007).
Where a SMILES comes first, the peptide text is derived from it. Bridges are numbered along the chain shown (N, C = ends). [ ]: non-standard residue; d: D form. The star is where a group is joined. d(aIle) = CC[C@H](C)[C@@H](N)C(=O)O; d(aThr) = C[C@@H](O)[C@@H](N)C(=O)O; Hexanoyl(5-Me) = CC(C)CCCC(=O)*; Orn = NCCC[C@H](N)C(=O)O; Dhb = C/C=C(\N)C(=O)O

Experiments:
Assay type in all cases: cell-based, human
A-549 = experiment: SRB colorimetric assay of cell growth and viability, A-549; settings: 48 hours exposure; for GI50: read-out: GI50 A-549; for CC50: read-out: LC50 A-549
SK-MEL-28 = experiment: SRB colorimetric assay of cell growth and viability, SK-MEL-28; settings: 48 hours exposure; for CC50: read-out: LC50 MEL-28
Excerpt: (§1) The finality of this assay is to interrupt the growth of a “in vitro” tumor cell culture by means a continued exhibition of the cells to the sample to be testing.
(§2) This form of the assay employs 96 well cell culture microplates of 9 mm diameter (Faircloth, 1988; Mosmann, 1983). Most of the cell lines are obtained from American Type Culture Collection (ATCC) derived from different human cancer types.
(§3) Cells are maintained in RPMI 1640 10% FBS, supplemented with 0.1 g/l penicillin and 0.1 g/l streptomycin sulfate and then incubated at 37° C., 5% CO2 and 98% humidity. For the experiments, cells were harvested from subconfluent cultures using trypsin and resuspended in fresh medium before plating.
(§4) Cells are seeded in 96 well microtiter plates, at 5×10^3 cells per well in aliquots of 195 μL medium, and they are allowed to attach to the plate surface by growing in drug free medium for 18 hours. Afterward, samples are added in aliquots of 5 μL in a ranging from 10 to 10^−8 μg/mL, dissolved in DMSO:EtOH:PBS (0.5:0.5:99). After 48 hours exposure, the antitumor effect are measured by the SRB methodology: cells are fixed by adding 50 μL of cold 50% (wt/vol) trichloroacetic acid (TCA) and incubating for 60 minutes at 4° C. Plates are washed with deionized water and dried. One hundred μL of SRB solution (0.4% wt/vol in 1% acetic acid) is added to each microtiter well and incubated for 10 minutes at room temperature. Unbound SRB is removed by washing with 1% acetic acid. Plates are air dried and bound stain is solubilized with Tris buffer. Optical densities are read on a automated spectrophotometric plate reader at a single wavelength of 490 nm.
(§5) The values for mean+/− SD of data from triplicate wells are calculated. Some parameters for cellular responses can be calculated: GI=growth inhibition, TGI=total growth inhibition (cytostatic effect) and LC=cell killing (cytotoxic effect).

HT-29 = experiment: SRB colorimetric assay of cell growth and viability, HT-29; settings: 48 hours exposure; for GI50: read-out: GI50 HT-29; for CC50: read-out: LC50 HT-29
LoVo = experiment: SRB colorimetric assay of cell growth and viability, LoVo; settings: 48 hours exposure; for CC50: read-out: LC50 LOVO
Excerpt: as §1, §2, §3, §4, §5

LoVo-Dox = experiment: SRB colorimetric assay of cell growth and viability, LoVo-Dox; settings: 48 hours exposure; for CC50: read-out: LC50 LOVO-DOX
Excerpt: as §1
A colorimetric type of assay, using sulforhodamine B (SRB) reaction has been adapted for a quantitative measurement of cell growth and viability [following the technique described by Philip Skehan, et al. (1990), New colorimetric cytotoxicity assay for anticancer drug screening, J. Natl. Cancer Inst., 82:1107-1112].
as §2, §3, §4, §5

DU-145 = experiment: SRB colorimetric assay of cell growth and viability, DU-145; settings: 48 hours exposure
Excerpt: as §1, §2, §3, §4, §5

IGROV-1 = experiment: SRB colorimetric assay of cell growth and viability, IGROV-1; settings: 48 hours exposure
Excerpt: as §1, §2, §3, §4, §5

IGROV-ET = experiment: SRB colorimetric assay of cell growth and viability, IGROV-ET; settings: 48 hours exposure; for CC50: read-out: LC50 IGROV-ET
Excerpt: as §1, §2, §3, §4, §5

HeLa = experiment: SRB colorimetric assay of cell growth and viability, HeLa; settings: 48 hours exposure; for CC50: read-out: LC50 HELA
Excerpt: as §1, §2, §3, §4, §5

HeLa-APL = experiment: SRB colorimetric assay of cell growth and viability, HeLa-APL; settings: 48 hours exposure; for CC50: read-out: LC50 HELA-APL
Excerpt: as §1, §2, §3, §4, §5

K-562 = experiment: SRB colorimetric assay of cell growth and viability, K-562; settings: 48 hours exposure; for CC50: read-out: LC50 K-562
Excerpt: as §1, §2, §3, §4, §5

PANC-1 = experiment: SRB colorimetric assay of cell growth and viability, PANC-1; settings: 48 hours exposure; for CC50: read-out: LC50 PANC-1
Excerpt: as §1, §2, §3, §4, §5

| Compound | TGI A-549 (A-549) [Molar] | GI50 (A-549) [µM] | CC50 (A-549) [µM] | GI50 (SK-MEL-28) [µM] | TGI MEL-28 (SK-MEL-28) [Molar] | CC50 (SK-MEL-28) [µM] | TGI HT-29 (HT-29) [Molar] | GI50 (HT-29) [µM] | CC50 (HT-29) [µM] | GI50 (LoVo) [µM] | TGI LOVO (LoVo) [Molar] | CC50 (LoVo) [µM] | GI50 (LoVo-Dox) [µM] | TGI LOVO-DOX (LoVo-Dox) [Molar] | CC50 (LoVo-Dox) [µM] | GI50 (DU-145) [µM] | LC50 (concentration causing 50% net cell kill) (DU-145) [µM] | TGI DU-145 (DU-145) [Molar] | GI50 (IGROV-1) [µM] | LC50 (concentration causing 50% net cell killing) (IGROV-1) [µM] | further results |
| --- | --- | --- | --- | --- | --- | --- | --- | --- | --- | --- | --- | --- | --- | --- | --- | --- | --- | --- | --- | --- | --- |
| C/C=C1\NC(=O)[C@H](Cc2ccccc2)NC(=O)[C@@H](C(C)C)NC(=O)[C@@H]([C@@H](C)CC)NC(=O)[C@H](NC(=O)[C@H](NC(=O)[C@H](CCCN)NC(=O)[C@H]2CCCN2C(=O)[C@H](NC(=O)[C@@H](NC(=O)[C@H](CCC(=O)O)NC(=O)CCCC(C)C)C(C)C)C(C)C)[C@@H](C)CC)[C@@H](C)OC(=O)[C@H](C(C)C)NC1=O [Compound 56, [Glu^12, noD-Val^13]-KF] ({Hexanoyl(5-Me)}-EV[dV][dP][Orn][d(aIle)][d(aThr)][d(aIle)][dV]F[Dhb]V; ester 7-C) | 7.11E−06 | 0.168 | ≥ 7.11 | ≥ 7.11 | 7.11E−06 | ≥ 7.11 | 7.11E−06 | ≥ 7.11 | ≥ 7.11 | 2.22 | 7.11E−06 | ≥ 7.11 | ≥ 7.11 | 7.11E−06 | ≥ 7.11 | 1.95 | ≥ 7.11 | 7.11E−06 | 2.78 | ≥ 7.11 | TGI IGROV (IGROV-1): 7.11E−06 Molar; GI50 (IGROV-ET): 1.39 µM; TGI IGROV-ET (IGROV-ET): 7.11E−06 Molar; CC50 (IGROV-ET): ≥ 7.11 µM; GI50 (HeLa): 0.37 µM; TGI HELA (HeLa): 7.11E−06 Molar; CC50 (HeLa): ≥ 7.11 µM; GI50 (HeLa-APL): ≥ 7.11 µM; TGI HELA-APL (HeLa-APL): 7.11E−06 Molar; CC50 (HeLa-APL): ≥ 7.11 µM; GI50 (K-562): ≥ 7.11 µM; TGI K-562 (K-562): 7.11E−06 Molar; CC50 (K-562): ≥ 7.11 µM; GI50 (PANC-1): 0.118 µM; TGI PANC-1 (PANC-1): 7.11E−06 Molar; CC50 (PANC-1): ≥ 7.11 µM |
| C/C=C1\NC(=O)[C@H](Cc2ccccc2)NC(=O)[C@@H](C(C)C)NC(=O)[C@@H]([C@@H](C)CC)NC(=O)[C@H](NC(=O)[C@H](NC(=O)[C@H](CCCN)NC(=O)[C@H]2CCCN2C(=O)[C@H](NC(=O)[C@@H](NC(=O)[C@@H]2CCCN2C(=O)CCCC(C)C)C(C)C)C(C)C)[C@@H](C)CC)[C@@H](C)OC(=O)[C@H](C(C)C)NC1=O [Compound 55, [Pro^12, noD-Val^13]-KF] ({Hexanoyl(5-Me)}-PV[dV][dP][Orn][d(aIle)][d(aThr)][d(aIle)][dV]F[Dhb]V; ester 7-C) | 7.27E−06 | 7.27 | 7.27 | 7.27 | 7.27E−06 | 7.27 | 7.27E−06 | 7.27 | 7.27 | 7.27 | 7.27E−06 | 7.27 | 7.27 | 7.27E−06 | 7.27 | 7.27 | 7.27 | 7.27E−06 | 7.27 | 7.27 | TGI IGROV (IGROV-1): 7.27E−06 Molar; GI50 (IGROV-ET): 7.27 µM; TGI IGROV-ET (IGROV-ET): 7.27E−06 Molar; CC50 (IGROV-ET): 7.27 µM; GI50 (HeLa): 7.27 µM; TGI HELA (HeLa): 7.27E−06 Molar; CC50 (HeLa): 7.27 µM; GI50 (HeLa-APL): 7.27 µM; TGI HELA-APL (HeLa-APL): 7.27E−06 Molar; CC50 (HeLa-APL): 7.27 µM; GI50 (K-562): 7.27 µM; TGI K-562 (K-562): 7.27E−06 Molar; CC50 (K-562): 7.27 µM; GI50 (PANC-1): 7.27 µM; TGI PANC-1 (PANC-1): 7.27E−06 Molar; CC50 (PANC-1): 7.27 µM |
| C/C=C1\NC(=O)[C@H](Cc2ccccc2)NC(=O)[C@@H](C(C)C)NC(=O)[C@@H]([C@@H](C)CC)NC(=O)[C@H](NC(=O)[C@H](NC(=O)[C@H](CCCN)NC(=O)[C@H]2CCCN2C(=O)[C@H](NC(=O)[C@@H](NC(=O)[C@H](C)NC(=O)CCCC(C)C)C(C)C)C(C)C)[C@@H](C)CC)[C@@H](C)OC(=O)[C@H](C(C)C)NC1=O [Compound 52, [Ala^12, noD-Val^13]-KF] ({Hexanoyl(5-Me)}-AV[dV][dP][Orn][d(aIle)][d(aThr)][d(aIle)][dV]F[Dhb]V; ester 7-C) | 7.41E−06 | 7.41 | 7.41 | 7.41 | 7.41E−06 | 7.41 | 7.41E−06 | 7.41 | 7.41 | 7.41 | 7.41E−06 | 7.41 | 7.41 | 7.41E−06 | 7.41 | 7.41 | 7.41 | 7.41E−06 | 7.41 | 7.41 | TGI IGROV (IGROV-1): 7.41E−06 Molar; GI50 (IGROV-ET): 3.67 µM; TGI IGROV-ET (IGROV-ET): 7.41E−06 Molar; CC50 (IGROV-ET): 7.41 µM; GI50 (HeLa): 6.18 µM; TGI HELA (HeLa): 7.41E−06 Molar; CC50 (HeLa): 7.41 µM; GI50 (HeLa-APL): 0.0179 µM; TGI HELA-APL (HeLa-APL): 7.41E−06 Molar; CC50 (HeLa-APL): 7.41 µM; GI50 (K-562): 7.41 µM; TGI K-562 (K-562): 7.41E−06 Molar; CC50 (K-562): 7.41 µM; GI50 (PANC-1): 6.64 µM; TGI PANC-1 (PANC-1): 7.41E−06 Molar; CC50 (PANC-1): 7.41 µM |
